The values below come from publication PMC7434893 (British Journal of Cancer, 2020).

For assay [1], the system named is sVEGFR3. Kind of assay: Serum biomarker analysis, sVEGFR3. The format is in vivo, human. To be noted: data not shown. As for the experimental part:
Two pre-dose, multiple post-dose and off-treatment time points were included. Serum samples were tested for concentrations of soluble vascular endothelial growth factor receptor (VEGFR)2, VEGFR3 and soluble interleukin-2 receptor α (sIL-2Rα/CD25), using the bead-based Human Soluble Cytokine Receptor Panel assay kit. The two baseline samples (days −3 and −2 prior to dosing) were averaged, and the mean was used to calculate percent change at each of the post-dosing time points.

Assay [2] deals with HCC1143. The experiment in a line: 8-day growth inhibition. Format: cell-based. The conditions noted are these: Breast, HCC1143, 8-day assay.
Assay [3] deals with MDA-MB-453. Kind of assay: 8-day growth inhibition. The format is cell-based. To be noted: Breast, MDA-MB-453, 8-day assay.
Assay [4] concerns DU145. The experiment in a line: 8-day growth inhibition. The conditions noted are these: Prostate, DU145, 8-day assay. Format: cell-based.
In assay [5] the test system is HCT-116. Kind of assay: 8-day growth inhibition. Format: cell-based. To be noted: Colon, HCT-116, 8-day assay.
Assay [6] has as its system HCT-15. Kind of assay: 8-day growth inhibition. Format: cell-based. To be noted: Colon, HCT-15, 8-day assay.
Assay [7] concerns SNG-ll. Kind of assay: 8-day growth inhibition. Format: cell-based. The conditions noted are these: Endometrial, 8-day assay.
The test system of assay [8] is HEC-1A. Kind of assay: 8-day growth inhibition. Format: cell-based. The conditions noted are these: Endometrial, 8-day assay.
In assay [9] the test system is RL95-2. Kind of assay: 8-day growth inhibition. The format is cell-based. To be noted: Endometrial, RL95-2, 8-day assay.
In assay [10] the test system is HEC-151. Kind of assay: 8-day growth inhibition. Format: cell-based. The conditions noted are these: Endometrial, HEC-151, 8-day assay.
For assay [11], the system named is Namalwa. The experiment in a line: 8-day growth inhibition. Format: cell-based. To be noted: Burkitt's lymphoma, 8-day assay.
In assay [12] the test system is Jeko-1. Kind of assay: 8-day growth inhibition. The format is cell-based. To be noted: MCL, Jeko-1, 8-day assay.
The subject of assay [13] is JVM-13. The experiment in a line: 8-day growth inhibition. The format is cell-based. To be noted: MCL, JVM-13, 8-day assay.
For assay [14], the system named is RPMI-8226. The experiment in a line: 8-day growth inhibition. Format: cell-based. To be noted: Myeloma, RPMI-8226, 8-day assay.

Usually IC50 stands for the point on the concentration scale where inhibition reaches its midpoint. On to `O=c1[nH]nc2c3c(cccc13)N=C(CN1Cc3ccccc3C1)N2` [E7449], for which the “Change in serum concentration of sVEGFR3 from baseline” value in assay [1] is on record as “No significant changes”. The IC50 in assay [2] worked out at 3700 nM; in [3], 6200 nM; in assay [4], 1800 nM; in assay [5] it was 1700 nM; in [6], 2200 nM; in assay [7] it was 5260 nM. The IC50 in assay [8] was determined as 2960 nM; in assay [9] it was 2130 nM; in [10], 1440 nM; in assay [11], 2500 nM; in [12], 1900 nM; in assay [13], 7300 nM. In assay [14], this compound displayed an IC50 of 9300 nM.
